Experimental data from ChEMBL document CHEMBL1275551, “Identification of the genetic basis for clinical menadione-auxotrophic small-colony variant isolates of Staphylococcus aureus” (Antimicrob Agents Chemother, 2008).

Tests used:
Type in all cases: functional, organism-based
[1] = test system: Staphylococcus aureus; test: Antibacterial activity against small-colony variant Staphylococcus aureus isolate OM299/1 harboring -1 frame shift mutation in 687 nucleotide of menB gene by Etest method
[2] = test system: Staphylococcus aureus; test: Antibacterial activity against phenotypic revertant Staphylococcus aureus OM1b:F9 harboring G698T/Gly233Val and compensatory A776T/Lys259Ile mutant menB gene by Etest method
[3] = test system: Staphylococcus aureus; test: Antibacterial activity against phenotypic revertant Staphylococcus aureus OM1b:F8 harboring 694-702 nucleotide deletion in menB gene by Etest method
[4] = test system: Staphylococcus aureus; test: Antibacterial activity against Staphylococcus aureus isolate OM299/1 by Etest method
[5] = test system: Staphylococcus aureus; test: Antibacterial activity against small-colony variant Staphylococcus aureus isolate A22616/5 harboring 55-63 nucleotide deletion in menB gene by Etest method
[6] = test system: Staphylococcus aureus; test: Antibacterial activity against phenotypic revertant Staphylococcus aureus OM1b:F2 harboring G698C Val233Ala compensatory mutation in menB gene by Etest method
[7] = test system: Staphylococcus aureus; test: Antibacterial activity against small-colony variant Staphylococcus aureus isolate OM1b harboring menB G698T Gly233Val mutant gene by Etest method
[8] = test system: Staphylococcus aureus; test: Antibacterial activity against wild type Staphylococcus aureus OM1b:F5 phenotypic revertant by Etest method
[9] = test system: Staphylococcus aureus; test: Antibacterial activity against Staphylococcus aureus isolate A22616/5 by Etest method
[10] = test system: Staphylococcus aureus; test: Antibacterial activity against Staphylococcus aureus isolate OM1a by Etest method

Sequence: GENTAMICIN
- MIC [1]: 16 µg/mL
- MIC [2]: 0.125 µg/mL
- MIC [3]: 0.125 µg/mL
- MIC [4]: 0.32 µg/mL
- MIC [5]: 12 µg/mL
- MIC [6]: 0.125 µg/mL
- MIC [7]: 8 µg/mL
- MIC [8]: 0.125 µg/mL
- MIC [9]: 0.19 µg/mL
- MIC [10]: 0.125 µg/mL
